Laboratory results taken from patent US7528138B2, “Pyrazolo[1,5-a]pyrimidines useful as inhibitors of protein kinases” (Vertex Pharmaceuticals Incorporated, priority 2004, dated 2009).

How the values were obtained:
Type in all cases: biochemical
Itk = molecular target: T1, Itk (Homo sapiens, UniProt Q08881); assay: ITK Inhibition Assay (Radiometric), radioactive-phosphate incorporation; settings: enzyme inhibition data (Ki), Table 11; radiometric or UV assay not stated
T1 sequence (Q08881 1-620): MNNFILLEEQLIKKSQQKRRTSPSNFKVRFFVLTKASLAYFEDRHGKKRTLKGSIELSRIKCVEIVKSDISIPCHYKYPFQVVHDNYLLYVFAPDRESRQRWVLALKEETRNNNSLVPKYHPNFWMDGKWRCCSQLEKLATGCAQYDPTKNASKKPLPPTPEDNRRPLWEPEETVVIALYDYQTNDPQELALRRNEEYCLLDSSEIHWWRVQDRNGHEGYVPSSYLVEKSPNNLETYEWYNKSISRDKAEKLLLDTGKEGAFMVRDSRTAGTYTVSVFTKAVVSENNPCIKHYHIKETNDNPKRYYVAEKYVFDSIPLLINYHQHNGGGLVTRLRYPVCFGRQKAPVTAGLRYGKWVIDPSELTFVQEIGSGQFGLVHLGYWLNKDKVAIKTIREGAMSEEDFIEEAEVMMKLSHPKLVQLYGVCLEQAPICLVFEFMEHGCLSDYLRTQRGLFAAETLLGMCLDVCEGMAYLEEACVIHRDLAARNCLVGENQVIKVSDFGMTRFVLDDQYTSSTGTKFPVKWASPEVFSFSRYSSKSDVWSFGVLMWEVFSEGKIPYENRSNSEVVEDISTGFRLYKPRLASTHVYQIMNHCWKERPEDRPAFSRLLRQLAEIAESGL
Experimental: Assays are carried out in a mixture of 20 mM MOPS (pH 7.0), 10 mM MgCl2, 0.1% BSA and 1 mM DTT. Final substrate concentrations in the assay are 7.5 μM [γ-33P]ATP (400 mCi 33P ATP/mmol ATP, Amersham Pharmacia Biotech/Sigma Chemicals) and 3 μM peptide (SAM68 protein D332-443). Assays are carried out at 25° C. in the presence of 50 nM Itk. An assay stock buffer solution is prepared containing all of the reagents listed above, with the exception of ATP and the test compound of interest. 50 μL of the stock solution is placed in a 96 well plate followed by addition of 2 μL of DMSO stock containing serial dilutions of the test compound (typically starting from a final concentration of 50 μM with 2-fold serial dilutions) in duplicate (final DMSO concentration 2%). The plate is pre-incubated for 10 minutes at 25° C. and the reaction initiated by addition of 50 μL [γ-33P]ATP (final concentration 7.5 μM).
The reaction is stopped after 10 minutes by the addition of […] 0.2M phosphoric acid+0.01% TWEEN 20. A multiscreen phosphocellulose filter 96-well plate (Millipore, Cat no. MAPHN0B50) is pretreated with 100 μL 0.2M phosphoric acid +0.01% TWEEN 20 prior to the addition of […] of the stopped assay mixture. The plate is washed with 4×200 μL 0.2M phosphoric acid+0.01% TWEEN 20. After drying, 30 μL Optiphase ‘SuperMix’ liquid scintillation cocktail (Perkin Elmer) is added to the well prior to scintillation counting (1450 Microbeta Liquid Scintillation Counter, Wallac).
Ki(app) data are calculated from non-linear regression analysis of the initial rate data using the Prism software package (GraphPad Prism version 3.0cx for Macintosh, GraphPad Software, San Diego Calif., USA).

JAK3 = molecular target: T2, JAK3 (Homo sapiens, UniProt P52333); assay: JAK3 Inhibition Assay, 33P incorporation; settings: enzyme inhibition data (Ki), Table 11
T2 sequence (P52333 1-1124): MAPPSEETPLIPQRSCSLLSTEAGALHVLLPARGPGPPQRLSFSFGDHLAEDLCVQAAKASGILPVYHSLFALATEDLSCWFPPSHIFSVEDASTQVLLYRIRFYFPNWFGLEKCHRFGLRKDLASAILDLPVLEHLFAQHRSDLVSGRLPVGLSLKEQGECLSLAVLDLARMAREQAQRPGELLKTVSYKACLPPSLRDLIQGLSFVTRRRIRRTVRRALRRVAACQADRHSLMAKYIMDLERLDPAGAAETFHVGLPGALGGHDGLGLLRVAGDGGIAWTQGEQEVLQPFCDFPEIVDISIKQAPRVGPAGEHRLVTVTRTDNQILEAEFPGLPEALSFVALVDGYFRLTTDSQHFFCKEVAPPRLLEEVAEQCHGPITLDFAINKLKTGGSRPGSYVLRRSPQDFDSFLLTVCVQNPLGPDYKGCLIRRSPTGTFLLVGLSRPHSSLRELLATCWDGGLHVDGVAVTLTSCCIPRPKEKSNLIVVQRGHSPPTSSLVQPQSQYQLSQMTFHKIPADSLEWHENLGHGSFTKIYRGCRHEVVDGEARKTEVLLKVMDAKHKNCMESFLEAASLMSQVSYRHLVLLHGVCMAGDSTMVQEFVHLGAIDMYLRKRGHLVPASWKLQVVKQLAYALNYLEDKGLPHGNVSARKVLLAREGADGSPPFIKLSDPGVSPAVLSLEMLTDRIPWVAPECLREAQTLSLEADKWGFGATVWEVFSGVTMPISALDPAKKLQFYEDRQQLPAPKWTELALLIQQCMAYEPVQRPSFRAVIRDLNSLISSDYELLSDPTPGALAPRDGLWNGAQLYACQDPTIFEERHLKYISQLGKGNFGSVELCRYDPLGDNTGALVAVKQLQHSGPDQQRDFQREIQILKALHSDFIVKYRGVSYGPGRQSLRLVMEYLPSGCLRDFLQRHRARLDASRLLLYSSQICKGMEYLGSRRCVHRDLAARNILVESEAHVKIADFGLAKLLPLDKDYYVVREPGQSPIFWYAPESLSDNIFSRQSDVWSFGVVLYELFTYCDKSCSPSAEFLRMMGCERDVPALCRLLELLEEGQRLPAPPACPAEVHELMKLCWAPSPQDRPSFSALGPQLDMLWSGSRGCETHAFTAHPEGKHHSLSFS
Experimental: Reactions are carried out in a kinase buffer containing 100 mM HEPES (pH 7.4), 1 mM DTT, 10 mM MgCl2, 25 mM NaCl, and 0.01% BSA. Substrate concentrations in the assay are 5 μM ATP (200 uCi/μmole ATP) and 1 μM poly(Glu)4Tyr. Reactions are carried out at 25° C. and 1 nM JAK3. To each well of a 96 well polycarbonate plate is added 1.5 μl of a candidate JAK3 inhibitor along with 50 μl of kinase buffer containing 2 μM poly(Glu)4Tyr and 10 μM ATP. This is then mixed and 50 μl of kinase buffer containing 2 nM JAK3 enzyme is added to start the reaction. After 20 minutes at room temperature (25 C), the reaction is stopped with 50 μl of 20% trichloroacetic acid (TCA) that also contained 0.4 mM ATP. The entire contents of each well are then transferred to a 96 well glass fiber filter plate using a TomTek Cell Harvester. After washing, 60 μl of scintillation fluid is added and ^33P incorporation detected on a Perkin Elmer TopCount.

c-Met = c-Met (Homo sapiens, UniProt P08581); assay: c-Met Inhibition Assay, coupled enzyme system; settings: enzyme inhibition data (Ki), Table 11
Experimental: Compounds are screened for their ability to inhibit c-Met kinase activity using a standard coupled enzyme system (Fox et al., Protein Sci. 1998, 7, 2249). Reactions are carried out in a solution containing 100 mM HEPES (pH 7.5), 10 mM MgCl2, 25 mM NaCl, 300 μM NADH, 1 mM DTT, and 1.5% DMSO. Final substrate concentrations in the assay are 200 μM ATP (Sigma Chemicals, St Louis, Mo.) and 10 μM polyGluTyr (Sigma Chemical Company, St. Louis). Reactions are carried out at 30° C. and 80 nM c-Met. Final concentrations of the components of the coupled enzyme system are 2.5 mM phosphoenolpyruvate, 300 μM NADH, 30 μg/ml pyruvate kinase and 10 μg/ml lactate dehydrogenase.
An assay stock buffer solution is prepared containing all of the reagents listed above with the exception of ATP and a test compound of the present invention. The assay stock buffer solution (175 μl) is incubated in a 96 well plate with 5 μl of the test compound of the present invention at final concentrations spanning 0.006 μM to 12.5 μM at 30° C. for 10 minutes. Typically, a 12-point titration is conducted by preparing serial dilutions (from 10 mM compound stocks) with DMSO of the test compounds of the present invention in daughter plates. The reaction is initiated by the addition of 20 μl of ATP (final concentration 200 μM). Rates of reaction are obtained using a Molecular Devices Spectramax plate reader (Sunnyvale, Calif.) over 10 minutes at 30° C. The Ki values are determined from the rate data as a function of inhibitor concentration.

c-Met, sequence (P08581 25-1390): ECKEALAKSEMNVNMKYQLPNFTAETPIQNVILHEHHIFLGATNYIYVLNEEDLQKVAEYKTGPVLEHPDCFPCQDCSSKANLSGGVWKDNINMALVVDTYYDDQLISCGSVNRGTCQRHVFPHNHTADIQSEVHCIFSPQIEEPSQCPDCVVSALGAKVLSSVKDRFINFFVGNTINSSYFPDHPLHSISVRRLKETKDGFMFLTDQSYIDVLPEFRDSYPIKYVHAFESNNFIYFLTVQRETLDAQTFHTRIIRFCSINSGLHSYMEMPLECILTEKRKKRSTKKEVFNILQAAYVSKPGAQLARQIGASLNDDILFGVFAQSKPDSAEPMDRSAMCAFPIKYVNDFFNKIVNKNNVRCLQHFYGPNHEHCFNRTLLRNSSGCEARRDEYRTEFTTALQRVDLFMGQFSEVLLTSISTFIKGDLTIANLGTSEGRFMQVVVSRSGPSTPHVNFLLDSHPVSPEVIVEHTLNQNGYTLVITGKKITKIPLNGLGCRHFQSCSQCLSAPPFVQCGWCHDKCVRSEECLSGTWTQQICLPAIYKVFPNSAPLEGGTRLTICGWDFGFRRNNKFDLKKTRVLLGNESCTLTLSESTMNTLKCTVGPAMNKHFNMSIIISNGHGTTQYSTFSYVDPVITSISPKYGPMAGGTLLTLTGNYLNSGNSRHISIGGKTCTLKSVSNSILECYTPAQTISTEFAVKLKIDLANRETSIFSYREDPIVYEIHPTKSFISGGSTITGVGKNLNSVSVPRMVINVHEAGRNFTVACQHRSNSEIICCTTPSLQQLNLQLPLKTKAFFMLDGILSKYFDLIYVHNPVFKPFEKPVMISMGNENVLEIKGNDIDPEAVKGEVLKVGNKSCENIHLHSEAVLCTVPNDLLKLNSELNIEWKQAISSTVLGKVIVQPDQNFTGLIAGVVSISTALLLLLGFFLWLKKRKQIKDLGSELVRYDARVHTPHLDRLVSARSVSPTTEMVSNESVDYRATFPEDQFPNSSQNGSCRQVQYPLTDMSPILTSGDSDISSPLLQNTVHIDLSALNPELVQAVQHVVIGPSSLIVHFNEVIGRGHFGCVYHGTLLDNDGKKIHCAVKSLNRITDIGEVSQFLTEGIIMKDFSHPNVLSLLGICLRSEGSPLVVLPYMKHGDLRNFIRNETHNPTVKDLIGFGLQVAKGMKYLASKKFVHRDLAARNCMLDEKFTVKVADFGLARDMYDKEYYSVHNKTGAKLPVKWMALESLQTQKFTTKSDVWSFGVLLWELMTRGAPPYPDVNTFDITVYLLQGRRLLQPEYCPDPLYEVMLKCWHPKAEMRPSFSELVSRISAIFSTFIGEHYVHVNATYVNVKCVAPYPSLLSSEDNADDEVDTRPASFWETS

Row | Structure (SMILES) | Ki (Itk) [µM] | Ki (JAK3) [µM] | Ki (c-Met) [µM]
1 | CCOC(=O)c1c(N)nn2cc(-c3cnccn3)cnc12 [Compound V-26] | 0.5 to 5 | > 5 | 0.5 to 5
2 | Cc1ccc(-c2cnc3c(-c4ccccc4Br)c(N)nn3c2)cc1 [Compound V-31] | 0.5 to 5 | > 5 | 0.5 to 5
3 | Nc1nn2cc(-c3ccncn3)cnc2c1C(=O)N1CCC[C@H]1CN1CCCC1 [Compound V-34] | 0.5 to 5 | > 5 | 0.5 to 5
4 | CN(C)CCN(Cc1ccccc1)C(=O)c1c(N)nn2cc(-c3ccncn3)cnc12 [Compound V-35] | 0.5 to 5 | > 5 | 0.5 to 5
5 | CCN(Cc1ccncc1)C(=O)c1c(N)nn2cc(-c3ccncn3)cnc12 [Compound V-36] | 0.5 to 5 | > 5 | 0.5 to 5
6 | Nc1nn2cc(-c3ccncn3)cnc2c1C(=O)N(CCO)Cc1ccccc1 [Compound V-37] | 0.5 to 5 | > 5 | 0.5 to 5
7 | N#CCCN(Cc1ccccc1)C(=O)c1c(N)nn2cc(-c3ccncn3)cnc12 [Compound V-38] | 0.5 to 5 | > 5 | 0.5 to 5
8 | CN(CCC#N)C(=O)c1c(N)nn2cc(-c3ccncn3)cnc12 [Compound V-40] | 0.5 to 5 | > 5 | 0.5 to 5
9 | CN(Cc1ccccc1)C(=O)c1c(N)nn2cc(-c3ccncn3)cnc12 [Compound V-41] | 0.5 to 5 | > 5 | 0.5 to 5
10 | CN(C)c1ccc(CNC(=O)c2c(N)nn3cc(-c4ccncn4)cnc23)cc1 [Compound V-43] | 0.5 to 5 | > 5 | 0.5 to 5
11 | Nc1nn2cc(-c3ccncn3)cnc2c1C(=O)N1CCC(O)C1 (stereo not drawn) [Compound V-44] | 0.5 to 5 | > 5 | 0.5 to 5
12 | Nc1nn2cc(-c3ccncn3)cnc2c1C(=O)N[C@H](CO)c1ccccc1 [Compound V-46] | 0.5 to 5 | > 5 | 0.5 to 5
13 | Nc1nn2cc(-c3ccccn3)cnc2c1C(=O)NCc1ccc(Cl)c(Cl)c1 [Compound V-47] | 0.5 to 5 | > 5 | 0.5 to 5
14 | CC(C)(C)OCc1ccccc1-c1cnc2c(-c3ccccn3)c(N)nn2c1 [Compound V-49] | 0.5 to 5 | > 5 | 0.5 to 5
15 | Nc1nn2cc(-c3cncnc3)cnc2c1-c1ccccn1 [Compound V-52] | 0.5 to 5 | > 5 | 0.5 to 5
16 | Cc1n[nH]c(C)c1-c1cnc2c(-c3ccccn3)c(N)nn2c1 [Compound V-53] | 0.5 to 5 | > 5 | < 0.5

Further lines, results first:

Row | Ki (Itk) [µM] | Ki (JAK3) [µM] | Ki (c-Met) [µM] | Structure (SMILES)
17 | 0.5 to 5 | > 5 | 0.5 to 5 | CCOC(=O)c1c(N)nn2cc(-c3ccccn3)cnc12 [Compound V-25]
18 | 0.5 to 5 | > 5 | 0.5 to 5 | CCOC(=O)c1c(N)nn2cc(-c3ccncn3)cnc12 [Compound V-27]
19 | 0.5 to 5 | > 5 | 0.5 to 5 | Nc1nn2cc(-c3ccncn3)cnc2c1C(=O)O [Compound V-28]
20 | 0.5 to 5 | > 5 | 0.5 to 5 | Nc1nn2cc(-c3ccncn3)cnc2c1C(=O)NCc1ccc(F)cc1F [Compound V-32]
21 | 0.5 to 5 | > 5 | 0.5 to 5 | Nc1nn2cc(-c3ccncn3)cnc2c1C(=O)N1CCC[C@H]1CO [Compound V-39]
22 | 0.5 to 5 | > 5 | 0.5 to 5 | CCN(Cc1ccccc1)C(=O)c1c(N)nn2cc(-c3ccncn3)cnc12 [Compound V-42]
23 | 0.5 to 5 | > 5 | 0.5 to 5 | Nc1nn2cc(-c3ccncn3)cnc2c1C(=O)N1CCCC1 [Compound V-45]
24 | 0.5 to 5 | > 5 | 0.5 to 5 | CCOC(=O)c1c(N)nn2cc(CCCOC(C)=O)cnc12 [Compound V-48]
25 | 0.5 to 5 | > 5 | < 0.5 | COc1ccc(-c2cnc3c(-c4ccccn4)c(N)nn3c2)cn1 [Compound V-50]
26 | 0.5 to 5 | > 5 | 0.5 to 5 | Nc1nn2cc(-c3ccccc3OCc3ccccc3)cnc2c1-c1ccccn1 [Compound V-56]
27 | 0.5 to 5 | > 5 | < 0.5 | Nc1nn2cc(N3CCCC3)cnc2c1-c1ccccn1 [Compound V-58]
